Data from US20250000818A1, “NEW SYNERGISTIC COMBINATIONS BASED ON FENM AND AN ACETYLCHOLINESTERASE INHIBITOR” (REST Therapeutics, priority 2021, published 2025).

Experiments:
[1] = test system: mice intoxicated with Aβ25-35 oligomers; test: Y-labyrinth spontaneous alternation test (YMT), short-term spatial working memory, Aβ25-35 oligomer ICV intoxication model; format: in vivo, male Swiss OF-1 mice
Description: (§1) In vivo experiments were conducted on male Swiss OF-1 mice (January, St Berthevin, France) aged 7 to 9 weeks with a mass of 32±2 g. The animals are housed in groups of 8 to 10 individuals in plastic cages with free access to food and drink, in a controlled environment (12:00 day/night cycle, the light is switched on at 7:00 a.m. and the behavioral experiments take place between 9:00 a.m. and 5:00 p.m.), under controlled atmosphere and sound environment.
The stock solutions of the compounds were obtained by dissolution in NaCl buffer (0.9%, vehicle) at a concentration of 2 mg/mL which corresponds to a dose of 5 mg/Kg. These stock solutions are stored at 4° C. for 2 weeks maximum.
(§2) The vehicle solution or the control peptide are subjected to the same treatment before administration.
The compounds are IP administered in a volume of 100 μL per 20 g of body mass. […] The doses of compounds mentioned in the experimental part correspond to the doses of salts of the used compounds and not to the mass equivalent of the compound itself. For each compound, the administered doses are 0.01, 0.03, 0.1, 0.3 and 1 mg/kg. In the case of the combination, the co-administered doses of donepezil and FENM were 0.03 and 0.01 mg/kg, respectively.
(§3) The ability of the compounds and their combination to decrease the cognitive symptoms of neurodegeneration induced by the Aβ25-35 oligomers is tested. For this purpose, the administration of the test compounds takes place on the same day as the injection of the Aβ25-35 oligomers and continues on a daily basis until day 7 after the injection of the Aβ25-35 oligomers; the mice are then subjected to YMT tests, or PAT on day 8 after the injection of the Aβ25-35 oligomers.
The spontaneous alternation test is used to study the (very short-term) spatial working memory in rodents. The labyrinth is made of opaque gray polyvinyl chloride (PVC). Each arm is 40 cm long, 13 cm high and 3 cm wide at its base and 10 cm at its top. The arms converge towards one another, with an equal angle between the different arms. In brief, each mouse is placed at the end of an arm and left free to move for an 8-minute session. The mouse entries in each of the arms, including the arm at which it was dropped, are recorded. An alternation is defined as the successive entry of the animal into three different arms.
The animal data showing extreme behaviors (percentage of alternation <20% or >90%) are not taken into account in the calculations. The attrition rate is usually 5%. Under normal conditions, a mouse will spontaneously alternate the explorations of each arm. A mouse with impaired memory and/or orientation capabilities will have its alternation percentage decreased.
Data were analyzed using unidirectional variance analyses (ANOVA, F-value), followed by a Dunnett test or non-parametric Kruskal-Wallis ANOVA (H-value) followed by a Dunn comparison test. The statistical significance levels are p<0.05, p<0.01 and p<0.001.

[2] = test system: mice intoxicated with Aβ25-35 oligomers; test: Passive avoidance test (PAT), long-term contextual memory, Aβ25-35 oligomer ICV intoxication model; format: in vivo, male Swiss OF-1 mice
Description: as §1
FENM was obtained from M2i Life Sciences (Saint-Cloud, France). The stock solutions of the compounds were obtained by dissolution in NaCl buffer (0.9%, vehicle) at a concentration of 2 mg/mL which corresponds to a dose of 5 mg/Kg. These stock solutions are stored at 4° C. for 2 weeks maximum.
as §2
The compounds are IP administered in a volume of 100 μL per 20 g of body mass. […] The doses of compounds mentioned in the experimental part correspond to the doses of salts of the used compounds and not to the mass equivalent of the compound itself. For each compound, the administered doses are 0.01, 0.03, 0.1, 0.3 and 1 mg/kg.
as §3
This test measures the long-term non-space (contextual) memory. The device used for this test is a box with two compartments (15×20×15 cm high), one illuminated with white PVC walls and the other in the dark with black PVC walls and a mesh floor. A guillotine door separates the compartments. A 60 W lamp is positioned 40 cm above the box and illuminates the white compartment. Electrical shocks (0.3 mA for 3 s) may be applied to the grid floor via a generator (Lafayette Instruments, Lafayette, USA). The test consists of a learning session and a test session. The guillotine door is closed during the training session. Each mouse is placed in the white compartment. After 5 seconds, the door is raised. When the mouse enters the dark compartment so that its four legs are in contact with the mesh, the door closes and electrical discharges are applied for 3 seconds. The time taken by the mouse to enter the dark compartment (STL-Tg) and the level of shock sensitivity (0=no sign; 1=surges; surge and vocalizes) are recorded. The test session is performed 24 hours after the learning session. Each mouse is placed back in the illuminated white compartment. After 5 seconds, the door is raised, the latency time (STL-R), i.e. the time it takes the mouse to go into the dark compartment, is measured. The maximum time is 300 seconds.

For `NC12CC3CC(C1)CC(CCF)(C3)C2.OBr` [FENM, 3 (2-Fluoroethyl)tricyclo[3.3.1.13,7]decan-1-amine bromohydrate], the “effect on percentage of alternation of intoxicated mice” value ([1]; 0.01 mg/kg) was “at the limit of statistical significance”, the “PP (%) percentage protection” value ([1]; 0.01 mg/kg IP daily to day 7, 100% = non-intoxicated vehicle, 0% = Aβ25-35/vehicle) was 38.5 ± 31.9% and the “effect on percentage of alternation of intoxicated mice” value ([1]; 0.03 mg/kg) was “significantly improves the percentage of alternation”. For the same molecule, the “PP (%) percentage protection” value ([1]; 0.03 mg/kg IP) was 58.4 ± 20.8%, the “PP (%) percentage protection” value ([1]; 0.1 mg/kg IP) was 71.2 ± 33.3 % and the “PP (%) percentage protection” value ([2]; 0.01 mg/kg IP) was 1.4 ± 18.3%. The “PP (%) percentage protection” value ([2]; 0.03 mg/kg IP) was −12.2 ± 16.8 %, the “PP (%) percentage protection” value ([2]; 0.1 mg/kg IP) was 27.8 ± 24.8% and the “PP (%) percentage protection” value ([2]; 0.3 mg/kg IP) was 52.9 ± 14.2 %. The “effect on passive avoidance performance (latency) of intoxicated mice” value ([2]; 0.3 mg/kg or 1 mg/kg IP) was “performances that are not significantly different from the control, non-intoxicated, untreated mice” and the “effect on passive avoidance performance (latency) of intoxicated mice” value ([2]; doses lower than 0.3 mg/kg) was “does not protect mice from mnesic disorders”.
